According to patent US20260085062A1, “NOVEL COMPOUNDS AS CK2 INHIBITORS” (Cambridge Enterprise Limited, priority 2022, published 2026):
pIC50: −log10 of the molar value.

Key:
[1] = biological target: T1, CK2α (Homo sapiens, UniProt P68400); experiment: Biochemical assay for inhibitors of CK2α kinase activity (ADP-Glo); details: 0.2 nM CK2α, 50 μM peptide substrate, 15 μM ATP, read-out: Assay 1: CK2α Enzyme IC50
T1 construct: CK2α (residues 2-329) was produced in Escherichia coli BL21 (DE3) for kinase activity screening; His6 (N, cleaved yes); made in house; host or cells: Escherichia coli BL21 (DE3)
T1 sequence (P68400 2-329): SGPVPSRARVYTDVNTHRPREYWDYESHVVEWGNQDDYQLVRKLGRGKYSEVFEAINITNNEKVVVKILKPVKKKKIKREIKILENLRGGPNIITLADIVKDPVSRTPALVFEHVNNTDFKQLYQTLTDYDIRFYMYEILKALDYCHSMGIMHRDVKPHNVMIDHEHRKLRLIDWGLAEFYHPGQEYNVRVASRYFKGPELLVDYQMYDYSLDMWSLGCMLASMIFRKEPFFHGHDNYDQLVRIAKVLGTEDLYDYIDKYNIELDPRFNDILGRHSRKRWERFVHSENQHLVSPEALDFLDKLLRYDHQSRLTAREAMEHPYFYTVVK
Method: The inhibitory activity of putative kinase inhibitors and the potency of selected compounds were determined using ADP-Glo™ assay. The kinase reaction was performed in the presence of excess peptide substrate and ATP at a concentration equivalent to Km. Upon termination of the kinase reaction, remaining ATP was depleted leaving only ADP reaction product, which was converted back to ATP with a coupled luciferin/luciferase reaction. The luminescent output from the coupled reaction was quantified and correlated with the kinase activity. […] Single colonies of the cells were grown in 6×1 L of 2×TY with 100 μg/mL ampicillin at 37° C. […] The cells were incubated overnight at 25° C. then harvested by centrifugation at 4,000 g for 20 minutes. The cell pellets were suspended in 20 mM Tris, 500 mM NaCl, pH 8.0 and lysed using a high pressure homogenizer. Protease inhibitor cocktail tablets (one tablet per 50 mL extract; Roche Diagnostics) and DNase I were then added. The crude cell extract was then centrifuged at 10,000 g for 45 minutes, the supernatant was filtered with a 0.22 μm filter. The soluble supernatant was applied on a Ni Sepharose Fast Flow6 column at pH 8.0, washed and eluted in 20 mM Tris pH 8.0, 500 mM NaCl, 200 mM imidazole. […] The cleaved protein was further purified on a Sepharose Q HP anion-exchange column and the main peak fraction from this column was further purified by gel filtration on a Superdex 75 16/60 HiPrep column equilibrated with Tris 20 mM, pH 8.0, 500 mM NaCl. Pure protein was concentrated to 15 mg/mL and flash frozen in liquid nitrogen. […] The assay was conducted as follows: • 1. […] After 120 minutes, the reaction was stopped by addition of 5 pl ADP-Glo reagent (Promega V9102) and the plate incubated at RT for a further 60 minutes. • 5. 10 μL of Kinase Detection reagent (Promega V9102) was added to assay plate and incubated for a further 30 minutes prior to reading luminescence on an Envision (Perkin-Elmer). Data was analysed to calculate compound IC50and Ki as follows: • 1. […] Percent activity was calculated for each well using: (Test well reading−MEAN100%inhibition control wells)/(MEAN0% inhibition control wells−MEAN100%inhibition control wells). • 5. Morrison Ki was determined using Morrison Ki equation (XL-fit).

[2] = biological target: T2, CLK2 (Homo sapiens, UniProt P49760); experiment: Biochemical assay for inhibitors of CLK2 kinase activity (ADP-Glo); details: 20 nM CLK2, 50 μM peptide substrate, 100 μM ATP, read-out: Assay 2: CLK2 Enzyme IC50
T2 construct: purchased Carna Biosciences 04-127
Method: The inhibitory activity of putative kinase inhibitors and the potency of selected compounds were determined using ADP-GloTM assay. The kinase reaction was performed in the presence of excess peptide substrate and ATP at a concentration equivalent to Km. Upon termination of the kinase reaction, remaining ATP was depleted leaving only ADP reaction product, which was converted back to ATP with a coupled luciferin/luciferase reaction. The luminescent output from the coupled reaction was quantified and correlated with the kinase activity. […] The assay was conducted as follows: • 1. […] After 120 minutes, the reaction was stopped by addition of 5 pl ADP-Glo reagent (Promega V9102) and the plate incubated at RT for a further 60 minutes. • 5. 10 μL of Kinase Detection reagent (Promega V9102) was added to assay plate and incubated for a further 30 minutes prior to reading luminescence on an Envision (Perkin-Elmer). Data was analysed to calculate compound IC50and Ki as follows: • 1. […] Morrison Ki was determined using Morrison Ki equation (XL-fit).

[3] = biological target: T3, intracellular CK2α (Homo sapiens, UniProt P19784); experiment: Cell-based NanoBRET assay for inhibitor binding to intracellular CK2α; details: HCT116 cells transiently transfected with CSNK2A2-NanoLuc fusion vector; Tracer K-5; 2 h; read-out: Assay 3: NanoBRET ™ assay for binding to intracellular CK2α
T3 construct: host or cells: HCT116 (ATCC CCL-247)
Method: This assay used the NanoBRET™ System (Promega), an energy transfer technique designed to measure molecular proximity in living cells. The assay measured the apparent affinity of test compounds by competitive displacement of a NanoBRET™ tracer reversibly bound to a NanoLucR luciferase CK2α fusion protein in cells. A fixed concentration of tracer was added to cells expressing the desired NanoLucR-CK2α fusion protein to generate a BRET reporter complex. […] Donor emission wavelength (450 nm) and acceptor emission wavelength (610 nm or 630 nm) were measured on the Envision (Perkin-Elmer) and BRET ratio calculated for data analysis: BRET Ratio=(Acceptorsample/Donorsample)×1,000. • 7.

T2 sequence (P49760 whole entry): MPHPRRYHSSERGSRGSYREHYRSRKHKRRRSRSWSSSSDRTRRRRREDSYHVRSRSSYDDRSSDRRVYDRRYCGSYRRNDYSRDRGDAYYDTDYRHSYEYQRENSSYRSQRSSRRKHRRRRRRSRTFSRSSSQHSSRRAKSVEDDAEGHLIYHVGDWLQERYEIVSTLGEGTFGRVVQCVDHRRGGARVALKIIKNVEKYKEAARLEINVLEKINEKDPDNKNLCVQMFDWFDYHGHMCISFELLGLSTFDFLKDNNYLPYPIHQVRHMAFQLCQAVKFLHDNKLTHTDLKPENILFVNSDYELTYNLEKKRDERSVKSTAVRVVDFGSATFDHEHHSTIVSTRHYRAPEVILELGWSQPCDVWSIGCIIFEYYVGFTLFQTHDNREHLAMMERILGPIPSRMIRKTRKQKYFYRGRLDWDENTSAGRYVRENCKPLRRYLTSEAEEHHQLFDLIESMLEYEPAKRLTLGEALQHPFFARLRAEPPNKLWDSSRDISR
T3 sequence (P19784 whole entry, the tested form may be a part): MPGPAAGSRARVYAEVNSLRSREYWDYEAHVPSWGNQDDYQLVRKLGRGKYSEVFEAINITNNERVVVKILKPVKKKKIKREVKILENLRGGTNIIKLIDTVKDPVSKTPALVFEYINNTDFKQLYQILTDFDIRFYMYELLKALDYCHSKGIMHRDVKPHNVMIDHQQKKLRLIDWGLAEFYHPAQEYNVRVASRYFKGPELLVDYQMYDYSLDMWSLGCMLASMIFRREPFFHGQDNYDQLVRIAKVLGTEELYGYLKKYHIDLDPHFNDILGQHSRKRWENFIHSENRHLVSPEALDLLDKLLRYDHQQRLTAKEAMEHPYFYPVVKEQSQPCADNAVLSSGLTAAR

Structure (SMILES)	pIC50 [1]	pIC50 [2]	pIC50 [3]
c1cc2[nH]c(CNCCCCOCCOc3cc(-c4cnoc4)cc4[nH]ncc34)cc2cc1OC1CCC1 [Example 54, N-((5-cyclobutoxy-1H-indol-2-yl)methyl)-4-(2-((6-(isoxazol-4-yl)-1H-indazol-4-yl)oxy)ethoxy)butan-1-amine]	8.84	6.66	6.89
Clc1ccc2cc(CNCCCCOCCNc3cc(-n4cnnc4)cc4[nH]ncc34)[nH]c2c1 [Example 52, N-(2-(4-(((6-chloro-1H-indol-2-yl)methyl)amino)butoxy)ethyl)-6-(4H-1,2,4-triazol-4-yl)-1H-indazol-4-amine]	8.84	7.42	6.53
Cc1nncn1-c1cc(NCCCNC(=O)CCNCc2ccc(-c3ccccc3)c(Cl)c2)c2cn[nH]c2c1 [Example 71, 3-(((2-chloro-[1,1′-biphenyl]-4-yl)methyl)amino)-N-(3-((6-(3-methyl-4H-1,2,4-triazol-4-yl)-1H-indazol-4-yl)amino)propyl)propanamide]	8.86	6.38	5.66
Cc1cc(CC#N)cc(CNCCCCOC2CN(c3cc(-c4ccnnc4)cc4[nH]ncc34)C2)c1 [Example 115, 2-(3-methyl-5-(((4-((1-(6-(pyridazin-4-yl)-1H-indazol-4-yl)azetidin-3-yl)oxy)butyl)amino)methyl)phenyl)acetonitrile]	6.94	5.19	5.00
O=C(CCNCc1ccc(OC(F)(F)F)c(Cl)c1)NCCCNc1cc(-c2cn[nH]c(=O)c2)cc2[nH]ncc12 [Example 168, 3-((3-chloro-4-(trifluoromethoxy)benzyl)amino)-N-(3-((6-(6-oxo-1,6-dihydropyridazin-4-yl)-1H-indazol-4-yl)amino)propyl)propanamide]	9.19	7.09	6.68
O=C(CCNCc1ccc(OC(F)(F)F)c(Cl)c1)NCCCNc1cc(-c2ncno2)cc2[nH]ncc12 [Example 173, N-(3-((6-(1,2,4-oxadiazol-5-yl)-1H-indazol-4-yl)amino)propyl)-3-((3-chloro-4-(trifluoromethoxy)benzyl)amino)propanamide]	8.93	5.50	6.44
O=C(CCNCc1ccc(OC(F)(F)F)c(Cl)c1)NCCCNc1cc(-n2cnnc2)cc2[nH]ncc12 [Example 33, N-(3-((6-(4H-1,2,4-triazol-4-yl)-1H-indazol-4-yl)amino)propyl)-3-((3-chloro-4-(trifluoromethoxy)benzyl)amino)propanamide]	9.32	7.11	6.34
Cc1c(-c2ccncc2)cc(NCCCNC(=O)CCNCc2ccc(OC(F)(F)F)c(Cl)c2)c2cn[nH]c12 [Example 178, 3-((3-chloro-4-(trifluoromethoxy)benzyl)amino)-N-(3-((7-methyl-6-(pyridin-4-yl)-1H-indazol-4-yl)amino)propyl)propanamide]	7.62	5.83	5.60
CN(C)C(=O)c1cc(NCCCNC(=O)CCNCc2ccc(-c3ccccc3)c(Cl)c2)c2cn[nH]c2c1 [Example 62, 4-((3-(3-(((2-chloro-[1,1'-biphenyl]-4-yl)methyl)amino)propanamido)propyl)amino)-N,N-dimethyl-1H-indazole-6-carboxamide]	6.74	4.85	4.53
FC(F)(F)c1ccc2[nH]c(CNCCCCOCCOc3cc(-n4cnnc4)cc4[nH]nnc34)cc2c1 [Example 116, 4-(2-((6-(4H-1,2,4-triazol-4-yl)-1H-benzo[d][1,2,3]triazol-4-yl)oxy)ethoxy)-N-((5-(trifluoromethyl)-1H-indol-2-yl)methyl)butan-1-amine]	6.61	< 4.30	< 4.30
Cn1c(CNCCC(=O)NCCCNc2cc(-n3cnnc3)cc3[nH]ncc23)cc2ccc(Cl)cc21 [Example 36, N-(3-((6-(4H-1,2,4-triazol-4-yl)-1H-indazol-4-yl)amino)propyl)-3-(((6-chloro-1-methyl-1H-indol-2-yl)methyl)amino)propanamide]	8.86	7.31	5.86
O=C(CCNCc1ccc(OC(F)(F)F)c(Cl)c1)NCCCNc1cc(-c2ccncc2Cl)cc2[nH]ncc12 [Example 169, 3-((3-chloro-4-(trifluoromethoxy)benzyl)amino)-N-(3-((6-(3-chloropyridin-4-yl)-1H-indazol-4-yl)amino)propyl)propanamide]	7.10	5.25	5.19
O=C(CCNCc1ccc(OC(F)(F)F)c(Cl)c1)NCCCNc1cc(-c2cc[nH]c(=O)n2)cc2[nH]ncc12 [Example 170, 3-((3-chloro-4-(trifluoromethoxy)benzyl)amino)-N-(3-((6-(2-oxo-1,2-dihydropyrimidin-4-yl)-1H-indazol-4-yl)amino)propyl)propanamide]	8.18	5.19	< 4.30
OCCOc1cc(CNC2CC(COCCNc3cc(-c4cnns4)cc4[nH]ncc34)C2)cc(OC(F)(F)F)c1 (stereo not drawn) [Example 205]	7.90	6.67	6.33
FC(F)(F)c1ccc2[nH]c(CNCCCCOCCNc3cc(-n4cnnc4)cc4[nH]nnc34)cc2c1 [Example 142, 6-(4H-1,2,4-triazol-4-yl)-N-(2-(4-(((5-(trifluoromethyl)-1H-indol-2-yl)methyl)amino)butoxy)ethyl)-1H-benzo[d][1,2,3]triazol-4-amine]	8.27	5.32	5.41
FC(F)(F)c1ccc2[nH]c(CNCCCCOC3CN(c4cc(-c5cnoc5)cc5[nH]ncc45)C3)cc2c1 [Example 139, 4-((1-(6-(isoxazol-4-yl)-1H-indazol-4-yl)azetidin-3-yl)oxy)-N-((5-(trifluoromethyl)-1H-indol-2-yl)methyl)butan-1-amine]	7.96	6.30	5.63
O=C(CCNCc1ccc(-c2ccccc2)c(Cl)c1)NCCCNc1cc(CO)cc2[nH]ncc12 [Example 63, 3-(((2-chloro-[1,1′-biphenyl]-4-yl)methyl)amino)-N-(3-((6-(hydroxymethyl)-1H-indazol-4-yl)amino)propyl)propanamide]	7.17	5.63	5.30
